In patent US20020010201A1 (priority 1999, published 2002):

Assays:
[1] = test system: patients with RLS; assay: Treatment of 2 patients with RLS (therapeutic history, monotherapies and combination therapy of pramipexole and clonidine)
Method: 1. […] The clonidine was also initially prescribed in a single dose of 0.075 mg two hours before bedtime and increased by 0.075 mg at intervals of 3 days.
2. Treatment with a Combination Therapy of Clonidine and Pramipexole After slowly bringing the clonidine therapy to a complete halt and after a treatment-free period of about 1 week, both patients were treated with a combination of 0.088 mg of pramipexole and 0.075 mg of clonidine. […] After 7 days the dosage of pramipexole had been increased to 0.18 mg and the dosage of clonidine to 0.15 mg, two hours before going to sleep.

[2] = test system: Restless Legs Syndrome patients; details: cited from earlier work; for effectiveness in RLS: short-term therapy trials of dopamine agonists
[3] = clonidine monotherapy, single dose before bedtime, 0.225 mg (male) / 0.45 mg (female)

Cc1nnc2n1-c1sc(Br)cc1C(c1ccccc1Cl)=NC2 [Brotizolam]
falling asleep and sleeping through ([1]; previous therapy, prescribed for limited time only): improved the falling asleep and sleeping through

NC(=O)N1c2ccccc2C=Cc2ccccc21 [Carbamazepine]
relief from the complaint ([2]; a few partly open trials): only partial relief from the complaint

N[C@@H](Cc1ccc(O)c(O)c1)C(=O)O [L-DOPA]
augmentation ([1]; human, in vivo): typical augmentation during the day | disadvantage of therapy (loss of effectiveness, rebound, augmentation) ([2]; in vivo): effectiveness declines and/or there is a shift of the RLS problems to the morning (rebound) or afternoon (augmentation) | alleviation of the complaint ([2]; long-term therapy, with improvement in quality of life and sleep): significant alleviation of the complaint

CC(C)C[C@H]1C(=O)N2CCC[C@H]2[C@]2(O)O[C@](NC(=O)[C@@H]3C[C@@H]4c5cccc6[nH]cc(c56)C[C@H]4N(C)C3)(C(C)C)C(=O)N12 [alphadihydroergocryptine]
effectiveness in RLS [2]: found to be effective

C=CCN1C[C@H](C(=O)N(CCCN(C)C)C(=O)NCC)C[C@@H]2c3cccc4[nH]cc(c34)C[C@H]21 [cabergoline]
effectiveness in RLS [2]: found to be effective

Clc1cccc(Cl)c1NC1=NCCN1 [clonidine, 2-(2,6-dichloroanilino)-4,5-dihydroimidazole]
compulsive movements [1, 3]: had also improved | paresthesia [1, 3]: felt hardly any paresthesia | quality of sleep and number of times they woke during the night [1, 3]: had not changed | perceived symptoms such as paresthesia, compulsive movement and tiredness during the day ([2]; 4 open trials, 2 double-blind placebo-controlled trials, single case study, daily doses 0.1-0.9 mg): (statistically significant) reduction in perceived symptoms | sleep latency (polysomnographic) ([2]; daily doses 0.1-0.9 mg): shortened | quality of sleep, frequency of waking or periodic leg movements in sleep (PLMS) ([2]; polysomnographic, daily doses 0.1-0.9 mg): not affected

CCN(CC)C(=O)N[C@H]1C=C2c3cccc4[nH]cc(c34)C[C@H]2N(C)C1 [lisuride]
effectiveness in RLS [2]: found to be effective

CCCN1C[C@H](CSC)C[C@@H]2c3cccc4[nH]cc(c34)C[C@H]21 [pergolide]
side effects preventing further dose increase ([1]; previous therapy of the 2 RLS patients): side effects such as nausea, gastrointestinal problems and dizziness | effectiveness in RLS [2]: found to be effective

CCCN[C@H]1CCc2nc(N)sc2C1 [pramipexole, (S)-2-amino-6-n-propylamino-4,5,6,7-tetrahydro-benzothiazole]
symptoms ([1]; pramipexole monotherapy, 0.088 mg two hours before bedtime, increased to 0.36 mg (male) / 0.27 mg (female) daily, no difference from earlier therapy): symptoms certainly improved | effectiveness in RLS [2]: found to be effective

CCCN(CCC)CCc1cccc2c1CC(=O)N2 [ropinirol]
effectiveness in RLS [2]: found to be effective

bromocryptine
effectiveness in RLS [2]: found to be effective
